MIC data for 9 molecules are collected here from ChEMBL document CHEMBL1275470, “Susceptibility testing and molecular classification of Paecilomyces spp” (2008).

Usually MIC stands for the smallest concentration in the dilution series that meets the test's criterion for growth inhibition. Read a high MIC as a less susceptible organism.

The structures appear in SMILES notation. ≈ marks a conversion by molar mass, not a printed value. Starred links: 1 amine or outer side, 2 acyl side, 3 side chain; linkers in the order of their positions; H or OH if unused. Positions of bridges follow the written chain, without caps; N, C: chain ends. Non-standard residues stand in square brackets, D forms with d. Residues, ends and D or L forms follow the SMILES beside them. *: point of attachment. hTyr(3S-OH,4S-OH,3'-OSO3H) = N[C@H](C(=O)O)[C@H](O)[C@@H](O)c1ccc(O)c(OS(=O)(=O)O)c1; pTerphenylCO(4''-OnC5H11) = CCCCCOc1ccc(-c2ccc(-c3ccc(C(=O)*)cc3)cc2)cc1; Orn(4R-OH,5R-OH) = O=C([C@H](C[C@@H](O)[C@@H](O)N[*:3])N[*:1])[*:2]; hTyr(3S-OH,4S-OH) = N[C@H](C(=O)O)[C@H](O)[C@@H](O)c1ccc(O)cc1; Pro(3S-OH,4S-Me) = C[C@H]1CN[C@H](C(=O)O)[C@H]1O; X1 = CCCCCOc1ccc(-c2cc(-c3ccc(C(=O)*)cc3)no2)cc1; Gln(3R-OH) = NC(=O)C[C@@H](O)[C@H](N)C(=O)O; Hyp = O=C(O)[C@@H]1C[C@@H](O)CN1

The subject of experiment [1] is Paecilomyces lilacinus. The experiment is described as follows: Antimicrobial activity against Paecilomyces lilacinus by microdilution method. Type of experiment: functional. Conditions: Purpureocillium lilacinum. (Broth dilution looks for growth in wells or tubes with falling amounts of substance.)
The test system of experiment [2] is Paecilomyces variotii. The experiment is described as follows: Antimicrobial activity against Paecilomyces variotii by microdilution method. It is filed as functional.

`CCCCCOc1ccc(-c2cc(-c3ccc(C(=O)N[C@H]4C[C@@H](O)[C@@H](O)NC(=O)[C@@H]5[C@@H](O)[C@@H](C)CN5C(=O)[C@H]([C@H](O)CC(N)=O)NC(=O)[C@H]([C@H](O)[C@@H](O)c5ccc(O)c(OS(=O)(=O)O)c5)NC(=O)[C@@H]5C[C@@H](O)CN5C(=O)[C@H]([C@@H](C)O)NC4=O)cc3)no2)cc1` [MICAFUNGIN] (X1-[Orn(4R-OH,5R-OH)]T[Hyp][hTyr(3S-OH,4S-OH,3'-OSO3H)][Gln(3R-OH)][Pro(3S-OH,4S-Me)]; lactam 1-C): the MIC in experiment [1] stood at 25.6 µg/mL (≈ 20.2 µM); in experiment [2] it was 0.018 µg/mL (≈ 0.0142 µM).

On to `CC[C@H](C)C[C@H](C)CCCCCCCCC(=O)N[C@H]1C[C@@H](O)[C@@H](NCCN)NC(=O)[C@@H]2[C@@H](O)CCN2C(=O)[C@H]([C@H](O)CCN)NC(=O)[C@H]([C@H](O)[C@@H](O)c2ccc(O)cc2)NC(=O)[C@@H]2C[C@@H](O)CN2C(=O)[C@H]([C@@H](C)O)NC1=O` [CASPOFUNGIN], for which the MIC turned out to be 27.9 µg/mL (≈ 25.5 µM) in experiment [1] and 0.44 µg/mL (≈ 0.402 µM) in experiment [2].

As to `CCCCCOc1ccc(-c2ccc(-c3ccc(C(=O)N[C@H]4C[C@@H](O)[C@@H](O)NC(=O)[C@@H]5[C@@H](O)[C@@H](C)CN5C(=O)[C@H]([C@@H](C)O)NC(=O)[C@H]([C@H](O)[C@@H](O)c5ccc(O)cc5)NC(=O)[C@@H]5C[C@@H](O)CN5C(=O)[C@H]([C@@H](C)O)NC4=O)cc3)cc2)cc1` [ANIDULAFUNGIN] ({pTerphenylCO(4''-OnC5H11)}-[Orn(4R-OH,5R-OH)]T[Hyp][hTyr(3S-OH,4S-OH)]T[Pro(3S-OH,4S-Me)]; lactam 1-C), the MIC in experiment [1] turned out to be 27.1 µg/mL (≈ 23.8 µM); in experiment [2], 0.016 µg/mL (≈ 0.014 µM).

For the molecule `CCC(C)n1ncn(-c2ccc(N3CCN(c4ccc(OCC5COC(Cn6cncn6)(c6ccc(Cl)cc6Cl)O5)cc4)CC3)cc2)c1=O` (stereo not drawn) [ITRACONAZOLE], the MIC turned out to be 13.4 µg/mL (≈ 19 µM) in experiment [1] and 0.06 µg/mL (≈ 0.085 µM) in experiment [2].

Take `C[C@@H](c1nc(-c2ccc(C#N)cc2)cs1)[C@](O)(Cn1cncn1)c1ccc(F)cc1F` [RAVUCONAZOLE]: the MIC in experiment [1] was determined as 0.73 µg/mL (≈ 1.67 µM); in experiment [2] it was 4.89 µg/mL (≈ 11.2 µM).

Turning to `C[C@@H](c1ncncc1F)[C@](O)(Cn1cncn1)c1ccc(F)cc1F` [VORICONAZOLE], the MIC in experiment [1] was determined as 0.45 µg/mL (≈ 1.29 µM); in experiment [2], 4.18 µg/mL (≈ 12 µM).

Take `CC[C@@H]([C@H](C)O)n1ncn(-c2ccc(N3CCN(c4ccc(OC[C@@H]5CO[C@@](Cn6cncn6)(c6ccc(F)cc6F)C5)cc4)CC3)cc2)c1=O` [POSACONAZOLE]: the MIC in experiment [1] was 0.28 µg/mL (≈ 0.4 µM); in experiment [2], 0.04 µg/mL (≈ 0.0571 µM).

Take `CN(C/C=C/C#CC(C)(C)C)Cc1cccc2ccccc12` [TERBINAFINE]: the MIC amounted to 0.51 µg/mL (≈ 1.75 µM) in experiment [1] and 1.53 µg/mL (≈ 5.25 µM) in experiment [2].

With `C[C@@H]1[C@H](O)[C@@H](C)/C=C/C=C/C=C/C=C/C=C/C=C/C=C/[C@H](O[C@@H]2O[C@H](C)[C@@H](O)[C@H](N)[C@@H]2O)C[C@@H]2O[C@](O)(C[C@@H](O)C[C@@H](O)[C@H](O)CC[C@@H](O)C[C@@H](O)CC(=O)O[C@H]1C)C[C@H](O)[C@H]2C(=O)O` [AMPHOTERICIN B], the MIC in experiment [1] came out at 29.6 µg/mL (≈ 32 µM); in experiment [2], 0.04 µg/mL (≈ 0.0433 µM).
